Measured values from US20230165183A1, “METHODS AND COMPOSITIONS FOR IMPROVED SEED GROWTH” (Cyprus University of Technology, priority 2021, published 2023).
Like-named read-outs stand apart in the source and are kept apart here.

Assays:
Safflower = conditions: Drought; cited from earlier work
Wheat [1] = conditions: cited from earlier work
Maize [2] = conditions: cited from earlier work
Rice = conditions: cited from earlier work
tomato seeds = test: Germination percentage of primed/coated tomato seeds five days after sowing; type: in vivo; conditions: tomato seeds primed with melatonin (Mel 1=50 μM, Mel 2=100 μM), 5 DAS, vs unprimed seeds; p<0.05
Method: FIG. 4 depicts germination percentage five days after sowing (5 DAS) in tomato seeds coated (pre-treated) with melatonin concentrations (Mel 1=50 μM, Mel 2=100 μM) in comparison with unprimed seeds (non-treated) and hydrogel coated seeds (Hydro).
Tomato seeds were primed with melatonin at the following concentrations: 5 μM, 10 μM, 15 μM, 25 μM, 50 μM, 100 μM, 200 μM, and 300 μM. Priming was performed by soaking the seeds in the desired melatonin concentration, then vacuum-drying the seeds.
FIG. 4 depicts germination percentage five days after sowing (5 DAS) in tomato seeds coated pre-treated with melatonin concentrations (Mel 1=50 μM, Mel 2=100 μM) in comparison with unprimed seeds (Non-treated) and hydrogel coated seeds (Hydro).

Maize [3] = conditions: Salt; cited from earlier work
Sorghum = conditions: Drought; cited from earlier work
Milk Thistle = conditions: Salt; cited from earlier work
Wheat [4] = conditions: Salt; cited from earlier work
Pigeon Pea = conditions: Calcium; cited from earlier work
Chickpea = conditions: Drought; cited from earlier work
Corn = conditions: Salt; cited from earlier work
Pot Marigold = conditions: Salt; cited from earlier work

## O=C(O)c1ccccc1O [SA, salicyclic acid]
Safflower
  Plant Response to SA: Enhanced antioxidant activity
Wheat [1]; Drought
  Plant Response to SA: Balanced nutrient uptake
Wheat [1]; Osmotic
  Plant Response to SA: Increased tolerance
Wheat [1]; Salinity
  Plant Response to SA: Decreased electrolyte leakage
Maize [2]; Chilling
  Plant Response to SA: Enhanced antioxidant activity
Maize [2]; Lead
  Plant Response to SA: Increased nitric oxide content
Rice; Chilling
  Plant Response to SA: Enhanced antioxidant activity
Rice; Chromium
  Plant Response to SA: Increased chlorophyll content

## COc1ccc2[nH]cc(CCNC(C)=O)c2c1 [melatonin]
Tomato seeds
  germination percentage: significantly increased germination percentage

## gibberellin [GA]
Maize [3]
  Plant Response to GA: Alleviated salt stress
Sorghum
  Plant Response to GA: Increased CAT and APX activities
Milk Thistle
  Plant Response to GA: Alleviated salt stress
Wheat [4]
  Plant Response to GA: Increased tolerance
Pigeon Pea
  Plant Response to GA: Increased germination
Chickpea
  Plant Response to GA: Increased relative water content
Corn
  Plant Response to GA: Increased tissue water content
Pot Marigold
  Plant Response to GA: Increased tolerance
